Legend:
[1] = molecular target: Muscarinic acetylcholine receptor M3 (Cavia porcellus) (UniProt Q8VH26); experiment: Antimuscarinic activity against M3 receptor of guinea pig ileum; assay type: tissue-based
[2] = system: Muscarinic acetylcholine receptors; M2 & M3; experiment: Selectivity ratio was calculated between Kb values at M2 and M3 muscarinic receptors; assay type: protein assay; details: Cavia porcellus
[3] = molecular target: Muscarinic acetylcholine receptor M2 (Cavia porcellus); experiment: Antimuscarinic activity against M2 receptor of guinea pig atrium; details: Cardiac atrium

Muscarinic acetylcholine receptor M3 (Cavia porcellus), sequence (Q8VH26 1-587): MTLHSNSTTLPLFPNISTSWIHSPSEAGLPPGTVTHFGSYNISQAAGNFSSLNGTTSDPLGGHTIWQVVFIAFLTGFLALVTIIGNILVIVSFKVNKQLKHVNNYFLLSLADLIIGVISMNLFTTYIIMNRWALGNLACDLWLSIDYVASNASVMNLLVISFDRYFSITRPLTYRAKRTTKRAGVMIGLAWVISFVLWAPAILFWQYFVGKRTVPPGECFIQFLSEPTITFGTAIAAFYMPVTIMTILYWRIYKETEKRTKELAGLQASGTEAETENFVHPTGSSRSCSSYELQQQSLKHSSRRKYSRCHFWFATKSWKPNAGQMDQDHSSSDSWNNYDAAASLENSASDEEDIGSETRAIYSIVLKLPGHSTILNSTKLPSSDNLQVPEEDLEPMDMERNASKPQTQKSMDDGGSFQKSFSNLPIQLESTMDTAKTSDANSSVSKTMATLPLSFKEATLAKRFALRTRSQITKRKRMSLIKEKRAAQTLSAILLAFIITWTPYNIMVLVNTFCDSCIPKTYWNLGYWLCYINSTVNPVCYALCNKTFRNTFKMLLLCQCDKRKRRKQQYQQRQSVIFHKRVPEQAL

| Kb [1] [µM] | Ratio [2] | Kb [3] [µM] | SMILES |
| --- | --- | --- | --- |
| 0.0437 | 3.39 | 0.148 | Cc1nccn1CCCCC(C(N)=O)(c1ccccc1)c1ccccc1 |
| 0.0254 | 3.3 | 0.0838 | Cc1nccn1CCC(CO)(c1ccccc1)c1ccccc1 |
| 5.15 | 1.14 | 5.87 | CNC(=O)C(CCn1ccnc1C)(c1ccccc1)c1ccccc1 |
| 0.00695 | 11.9 | 0.0827 | Cc1nccn1CCC(C(=O)O)(c1ccccc1)c1ccccc1 |
| 0.00114 | 17.6 | 0.0201 | Cc1nccn1CCCC(C(N)=O)(c1ccccc1)c1ccccc1 |
|  | 13 |  | Cc1nccn1CCC(C(N)=O)(c1ccccc1)c1ccccc1 |
| > 1 |  |  | COC(=O)C(CCn1ccnc1C)(c1ccccc1)c1ccccc1 |
| 0.258 | 1.85 | 0.478 | Cc1nccn1CCC(C(=O)N(C)C)(c1ccccc1)c1ccccc1 |
| 0.0167 | 3 | 0.0501 | Cc1nccn1CCC(O)(c1ccccc1)c1ccccc1 |

Further lines, the molecule ahead of its results:

| SMILES | Kb [1] [µM] | Ratio [2] | Kb [3] [µM] |
| --- | --- | --- | --- |
| Cc1nccn1CCC(C)(C(N)=O)c1ccccc1 (stereo unspecified) | 1.83 |  |  |
| Cc1nccn1CCC(C(N)=O)(c1ccccc1)C(C)C (stereo unspecified) | 0.394 |  |  |
| Cc1nccn1CCCCCC(C(N)=O)(c1ccccc1)c1ccccc1 | 0.0713 | 9.96 | 0.71 |
| Cc1nccn1CCC(C(N)=O)(c1ccccc1)c1ccccn1 (stereo unspecified) | 0.00286 | 17.5 | 0.0501 |
| Cc1nccn1C(C)CC(C(N)=O)(c1ccccc1)c1ccccc1 (stereo unspecified) | 0.0169 | 10.3 | 0.174 |
| Cc1nccn1CCC(C#N)(c1ccccc1)c1ccccc1 | 0.0104 | 1.49 | 0.0155 |
| Cc1nccn1CCC(C(N)=O)C1c2ccccc2Oc2ccccc21 (stereo unspecified) | > 0.3 |  |  |
| Cc1nccn1CC(C)C(C(N)=O)(c1ccccc1)c1ccccc1 (stereo unspecified) | 0.00289 | 15.6 | 0.0451 |
| Cc1ccc(C(CCn2ccnc2C)(C(N)=O)c2ccccc2)cc1 (stereo unspecified) | 0.0246 | 30.3 | 0.743 |
| Cc1nccn1CCC(C(N)=O)(c1ccc(F)cc1)c1ccc(F)cc1 | 0.00985 | 16.3 | 0.161 |
| Cc1nccn1CCC(C(N)=O)C1c2ccccc2CCc2ccccc21 (stereo unspecified) | 2.14 |  |  |
| Cc1nccn1CCC(C(N)=O)(c1ccccc1)C1CCCCC1 (stereo unspecified) | 0.019 | 31.7 | 0.603 |
